According to patent US20230263826A1, “Compositions and Methods for Treatment and Prevention of Type 1 Diabetes” (The UAB Research Foundation, priority 2021, published 2023):

Tested on: female NOD mice
Test: Plasma lipidomics in FKGK18- and PBS-T-treated NOD mice that developed T1D
Type: in vivo, mouse
Conditions: treatment initiated at 10 days or 4 weeks of age
Procedure: FIGS. 11A-11I show a comparison of select plasma lipids in diabetic NOD mice. NOD mice were treated with PBS-Tor with FKGK18, starting at 10 days or 4 weeks of age, and sacrificed at the onset of diabetes. Plasma was prepared from these mice and processed for lipidomics analyses. The data (mean±SEM) represent pmol of each lipid species in 100 or 50 µL plasma fo LTC4 (FIG. 11A), 15-HETE (FIG. 11B), 5-HETE (FIG. 11C), PGD2 (FIG. 11D), AA (FIG. 11E), So1P/So (FIG. 11F), EET/DHET (FIG. 11G), resolving D2 (FIG. 11H), and DHA (FIG. 11I). (Statistical analyses: Students′ t-test. N=4/group.).
Next, to determine if a proinflammatory landscape persists until T1D onset, Applicants performed lipidomic analyses with plasma from FKGK18- and PBS-T-treated NOD (starting at 10 days). […] Furthermore, the ratio of So1P/So was higher in diabetic PBS-T-NOD, in comparison with nondiabetic PBS-T- or FKGK18-treated NOD (FIG. 6F). […]
Analysis of sphingolipids, eicosanoids, and fatty acids by ultra performance liquid chromatography-electrospray ionization-tandem mass spectrometry. […] Sphingolipids, eicosanoids, and fatty acids were analyzed via mass spectrometry using an AB Sciex Triple Quad 5500 Mass Spectrometer. […] The MΦ (2.75 × 10^6) were administered i.p. to 8-week-old female NOD, and diabetes incidence was recorded through weekly blood glucose monitoring.

## O=C(CCCCc1ccc2ccccc2c1)C(F)(F)F [FKGK18]
Mice that developed T1D
  plasma PGD2 relative to PBS-T (d) groups: decrease
Sacrificed at onset of diabetes, all lipids except PGD2
  plasma lipids vs PBS-T in mice that developed T1D: no differences
